Experimental data as given in patent US20070003987A1, “Screening method for substance binding to merozoite surface protein-1/42” (priority 2003, published 2007).

What was measured:
P. falciparum (FCB-1) = assay: growth inhibition assay by [3H] hypoxanthine uptake; format: cell-based, Plasmodium falciparum; conditions: 200 μM
Protocol: Asexual blood stages of P. falciparum (FCB-1) were maintained at 37° C. in RPMI 1640/Albumax medium (Gibco) supplemented with 2 mM L-glutamine as previously described (Blackman, 1994 Methods Cell Biol. 45, 213-220). Cultures were gassed with 7% CO2, 5% O2 and 88% N2 and maintained by routine passage in fresh human erythrocytes. Parasites were synchronised by Percoll and sorbitol treatment (Holder & Freeman, 1982 J. Exp. Med. 156, 1528-1538); schizonts were purified by centrifugation over Percoll and then returned to culture in the presence of fresh erythrocytes. After 4 h, during which time released merozoites invaded erythrocytes, the cells were treated with 5% sorbitol for 10 min to lyse the residual schizonts, before returning the parasites to culture.
Suramin and NTS were also assayed for P. falciparum growth inhibition using [^3H] hypoxanthine uptake (generally as described by Desjardins et al, 1979 Antimicrob. Agents Chemother. 16, 710-718). Serial dilutions of the compounds in 96-well plates were incubated at 37° C. with purified mature schizonts at a final parasitaemia of ^˜0.5% and a haematrocrit of ^˜2% in triplicate cultures. […] The filters were wetted with scintillation cocktail and the bound radioactivity counted in a β-counter. […] The amount of radioactivity in each sample was expressed as a percentage of activity in the control wells containing no compound. […]

MSP142 [1] = molecular target: T1, MSP142 (Plasmodium falciparum, UniProt Q8I0U8); assay: inhibition of suramin binding (fluorescence, 384-well plate); conditions: 10 μM analogue, 2 μM suramin, 0.1 mg/ml MSP142
Protocol: MSP142 (0.1 mg/ml), 10 μM suramin analogue and 2 μM suramin were combined in a 384-well black polypropylene low binding plate (total reaction volume 100 μL). Fluorescence was read at λex 320 nm/λem 405 nm on a BMG Polarstar fluorimeter. Readings were taken before, and 1 hour after, addition of suramin.
Target sequence in this assay (Q8I0U8 1327-1699): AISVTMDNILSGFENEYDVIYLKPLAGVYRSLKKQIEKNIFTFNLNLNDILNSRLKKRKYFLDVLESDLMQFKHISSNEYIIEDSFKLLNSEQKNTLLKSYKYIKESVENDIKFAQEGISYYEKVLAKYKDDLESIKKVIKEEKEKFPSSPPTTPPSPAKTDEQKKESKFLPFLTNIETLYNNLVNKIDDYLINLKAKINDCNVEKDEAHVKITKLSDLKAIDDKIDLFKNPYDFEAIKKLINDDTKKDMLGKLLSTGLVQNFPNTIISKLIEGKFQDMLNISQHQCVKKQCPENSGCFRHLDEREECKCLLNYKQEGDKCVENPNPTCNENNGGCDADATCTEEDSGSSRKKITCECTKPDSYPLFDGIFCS

[2] = titration of fluorescent analogues in PBS buffer only; format: physicochemical; conditions: 0.01-200 μM
Protocol: Analogues 258, 261, 264 and 266 were titrated against (a) PBS buffer only, (b) 0.1 mg/ml bovine serum albumin in PBS or (c) 0.1 mg/ml MSP142 in PBS. Fluorescence observed was compared to naphthalenetrisulphate (non-specific reagent) and suramin.

MSP142 [3] = molecular target: T1, MSP142; assay: P. falciparum MSP1 secondary processing assay (merozoites, Western blot); format: biochemical; design: Merozoites were purified as described previously; endogenous in cells; host or cells: purified P. falciparum merozoites released from mature schizonts; conditions: 1 mM, 1 h at 37° C.
Protocol: Merozoites were purified as described previously (Blackman 1994 Methods Cell Biol. 45, 213-220) after release from mature schizonts into growth medium supplemented with 2 mM EGTA. Merozoites were harvested by centrifugation, followed by sequential passage through pre-wetted filters of 3 and 1.2 μm pore size. Merozoites were washed in Ca^2+- and Mg^2+-free PBS in the presence of protease inhibitors (leupeptin, antipain and aprotinin at 10 μg ml^−1). The merozoites were then washed and resuspended in 50 mM Tris-HCl pH 7.2, 5 mM CaCl2, 1 mM MgCl2, plus leupeptin, antipain and aprotinin at 10 μg ml^−1 (processing buffer), and divided into 18 μl aliquots. Two microlitres of either diluted compound or reaction buffer were added and the samples incubated for 1 h at 37° C. Control assays included those in which processing was prevented by immediate addition of either SDS, 1 mM PMSF or 5 mM EGTA; and those in the absence of compound or in the presence of 0.2 mM TLCK (tosyl-L-lysyl chloromethyl ketone). After 1 h the reaction was stopped, and MSP1 processing was analysed using a Western blot-based assay (Blackman 1994 Methods Cell Biol. 45, 213-220). The blots were probed with a rabbit anti-MSP133/MSP142 antibody and the bands corresponding to MSP142 and MSP133 polypeptides were visualised by enhanced chemiluminescence.
Purified merozoites were incubated in the presence or absence of suramin or NTS and polypeptides subjected to SDS-PAGE and Western blotting.
Target sequence in this assay (Q8I0U8 20-1326): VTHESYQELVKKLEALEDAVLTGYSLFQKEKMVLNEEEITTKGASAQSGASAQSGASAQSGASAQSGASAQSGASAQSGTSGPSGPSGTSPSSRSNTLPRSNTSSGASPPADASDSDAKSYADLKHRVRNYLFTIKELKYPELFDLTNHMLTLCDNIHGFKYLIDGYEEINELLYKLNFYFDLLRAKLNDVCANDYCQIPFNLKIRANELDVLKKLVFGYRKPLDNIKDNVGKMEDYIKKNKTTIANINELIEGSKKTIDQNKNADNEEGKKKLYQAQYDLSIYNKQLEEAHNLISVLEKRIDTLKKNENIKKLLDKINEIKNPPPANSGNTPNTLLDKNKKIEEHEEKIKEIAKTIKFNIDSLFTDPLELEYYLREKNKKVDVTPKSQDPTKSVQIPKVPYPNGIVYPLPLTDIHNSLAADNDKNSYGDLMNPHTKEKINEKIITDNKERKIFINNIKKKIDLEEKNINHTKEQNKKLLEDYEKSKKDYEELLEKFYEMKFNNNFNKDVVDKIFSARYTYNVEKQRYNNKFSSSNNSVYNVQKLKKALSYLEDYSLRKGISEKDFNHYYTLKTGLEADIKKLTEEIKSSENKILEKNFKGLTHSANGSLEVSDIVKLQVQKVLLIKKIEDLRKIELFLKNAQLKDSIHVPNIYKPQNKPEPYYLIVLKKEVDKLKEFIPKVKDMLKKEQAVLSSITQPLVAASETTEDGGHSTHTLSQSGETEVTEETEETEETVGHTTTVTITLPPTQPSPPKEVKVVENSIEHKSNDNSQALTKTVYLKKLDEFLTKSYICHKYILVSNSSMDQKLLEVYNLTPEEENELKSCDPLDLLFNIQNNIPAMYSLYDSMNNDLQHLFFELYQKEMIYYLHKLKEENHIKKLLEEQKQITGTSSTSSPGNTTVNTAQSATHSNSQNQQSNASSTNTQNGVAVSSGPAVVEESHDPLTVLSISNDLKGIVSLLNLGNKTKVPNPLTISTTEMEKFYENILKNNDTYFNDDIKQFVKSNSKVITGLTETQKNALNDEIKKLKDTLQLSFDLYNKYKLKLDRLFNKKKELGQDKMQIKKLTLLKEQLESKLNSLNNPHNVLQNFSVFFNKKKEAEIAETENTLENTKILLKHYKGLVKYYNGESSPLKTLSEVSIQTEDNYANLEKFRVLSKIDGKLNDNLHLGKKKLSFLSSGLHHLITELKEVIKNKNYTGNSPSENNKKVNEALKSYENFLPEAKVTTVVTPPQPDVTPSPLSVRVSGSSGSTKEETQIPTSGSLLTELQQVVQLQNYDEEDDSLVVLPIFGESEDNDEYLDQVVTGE
Target sequence in this assay (Q8I0U8 1327-1699): as the sequence (Q8I0U8 1327-1699) above

SMILES | inhibition of invasion at the highest concentration tested (P. falciparum (FCB-1)) | effect on the fluorescent signal of suramin / own fluorescence (MSP142 [1]) | fluorescence in buffer alone [2] | inhibition of MSP142 secondary processing (MSP142 [3])
O=S(=O)(O)c1ccc2c(S(=O)(=O)O)cc(S(=O)(=O)O)cc2c1 [NTS, Naphthalene-1,3,6-trisulphonic acid] | did not inhibit invasion | most fluorescent compound tested | fluorescent in buffer alone | –
O=S(=O)(F)Cc1ccccc1 [PMSF] | – | – | – | absence of MSP133
